Assay results taken from PubChem BioAssay (NCI).
Where “and” joins values, the source holds several entries; their conditions need not be identical. Equal values may be shown once.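 Cultured in 96-well plates, cells were exposed to test compound for 48 hours across five concentrations. At the GI50, growth is halved. Definition used: TGI = concentration required for complete inhibition of growth.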

Experiments:
Test in all cases: NCI-60 cell line screen, 48 h
MALME-3M melanoma = test system: MALME-3M melanoma
MDA-MB-231 breast = test system: MDA-MB-231 breast
786-0 renal = test system: 786-0 renal
SR leukemia = test system: SR leukemia
M14 melanoma = test system: M14 melanoma
HCC-2998 colon = test system: HCC-2998 colon
NCI/ADR-RES ovarian = test system: NCI/ADR-RES ovarian
LOX IMVI melanoma = test system: LOX IMVI melanoma
HOP-62 NSCLC = test system: HOP-62 NSCLC
SK-MEL-28 melanoma = test system: SK-MEL-28 melanoma

Structure (SMILES) | GI50 (MALME-3M melanoma) | TGI (MALME-3M melanoma) | GI50 (MDA-MB-231 breast) [µM] | TGI (MDA-MB-231 breast) | GI50 (786-0 renal) | TGI (786-0 renal) | GI50 (SR leukemia) | TGI (SR leukemia) | GI50 (M14 melanoma) [µM] | TGI (M14 melanoma) [µM] | GI50 (HCC-2998 colon) [µM] | TGI (HCC-2998 colon) | GI50 (NCI/ADR-RES ovarian) | TGI (NCI/ADR-RES ovarian) | GI50 (LOX IMVI melanoma) | TGI (LOX IMVI melanoma) [µM] | GI50 (HOP-62 NSCLC) | TGI (HOP-62 NSCLC) | GI50 (SK-MEL-28 melanoma) | TGI (SK-MEL-28 melanoma)
CC(C)(C)C[C@H]1NC(C(=O)NCC[C@H](O)CO)[C@H](c2cccc(Cl)c2)[C@@]12C(=O)Nc1cc(Cl)c(F)cc12 (stereo not given in full) | 0.866 µM | 11.8 µM | 14.9 | 32.4 µM | 17 µM | 33.8 µM | 1.83 µM | 10.1 µM | 16.6 | 33.7 | 16.2 | 31.1 µM | 37 µM | > 100 µM | 3.12 µM | 19.1 | 15.5 µM | 29.7 µM | 15.9 µM | 30.5 µM
COC(=O)/C=C/C=C(c1ccccc1)c1ccccc1 | 4.23 µM | 30.4 µM | 11.1 | 36 µM | 4.32 µM | 58.5 µM | 4.51 µM | > 100 µM | 3.36 | 17.5 | 28.8 | > 100 µM | 3.12 µM | 17 µM | 5.87 µM | 21.7 | 4.14 µM | 40.9 µM | 7.84 µM | > 100 µM
CC(C)NC[C@@H](C(=O)N1CCN(c2ncnc3c2[C@H](C)C[C@H]3O)CC1)c1ccc(Cl)cc1 | > 10 µM and 4.54 µM | > 76.7 µM | > 69 | > 100 µM | 0.334 µM and 0.546 µM | > 100 µM | > 10 µM and 13 µM | > 71.5 µM | > 61.5 | > 100 | – | > 100 µM | > 100 µM | > 100 µM | > 10 µM and 66 µM | > 100 | > 10 µM and 11.9 µM | > 100 µM | > 10 µM and 36.6 µM | > 100 µM
CCN(CC)c1ccc(C(=C2C=CC(=[N+](CC)Cc3cccc(S(=O)(=O)O)c3)C=C2)c2ccc(N(CC)Cc3cccc(S(=O)(=O)O)c3)cc2)cc1 | 5.52 µM | 53.1 µM | 9.61 | > 92.6 µM | 12.9 µM | 98.9 µM | – | 0.643 µM | 4.93 | 39.2 | 5.78 | > 100 µM | > 100 µM | > 100 µM | 4.84 µM | > 100 | 4.59 µM | > 96.6 µM | 15.6 µM | > 100 µM
C[C@H](Nc1ncnc2nc[nH]c12)c1cc2cccc(Cl)c2c(=O)n1-c1ccccc1 | 3.51 µM | > 79.5 µM | 46.4 | > 100 µM | 1.42 µM | > 86.7 µM | 24.3 µM | > 100 µM | 21.1 | > 100 | 28.4 | > 100 µM | > 100 µM | > 100 µM | 19.8 µM | > 100 | 30.3 µM | > 100 µM | 11.8 µM | > 100 µM
Cc1ccc2c(ccc3c[n+]4c5ccccc5ccc4n32)c1 | 0.316 µM | 1.59 µM | 2.7 | 11.6 µM | 2.56 µM | 14.8 µM | 1.47 µM | 16.7 µM | 1.35 | 4.68 | 1.27 | 2.98 µM | > 100 µM | > 100 µM | 1.32 µM | 3.25 | 1.28 µM | 12.6 µM | 1.2 µM | 3.32 µM
CNC(=O)c1cncc(/C=C/c2ccccc2C)c1 | > 25 µM | > 25 µM | > 25 | > 25 µM | > 25 µM | > 25 µM | > 25 µM | > 25 µM | > 25 | > 25 | > 25 | > 25 µM | > 25 µM | > 25 µM | > 25 µM | > 25 | > 25 µM | > 25 µM | > 25 µM | > 25 µM
Cc1[c-]onc1C.Cc1[c-]onc1C.[Ag].[Ag].[NH-]S(=O)(=O)c1ccc(N=Nc2cc(N=Nc3ccc(S([NH-])(=O)=O)cc3)c3c(NC(=O)C(Cl)Cl)cccc3c2OC(=O)C(Cl)Cl)cc1 | 9.07 µM | 21.2 µM | 5.44 | 19.1 µM | 8.87 µM | 16.4 µM | 9.59 µM | 42.5 µM | 8.18 | 18.4 | 10.9 | 26 µM | 21 µM | > 50 µM | 7.75 µM | 18.3 | 16.8 µM | 38.9 µM | 8.18 µM | 17 µM
CC(C)(C)C#CC1=C(Br)C(=O)OC1 | 2.08 µM | 4.91 µM | 2.48 | 11 µM | 2.27 µM | 5.96 µM | > 100 µM | > 100 µM | 3.61 | 27 | 1.59 | 3.12 µM | 0.426 µM | 2.8 µM | 1.7 µM | > 21.2 | 0.454 µM | 1.48 µM | 1.12 µM | 67 µM
Cc1ccc(/C=C2\CN(C(=O)OC(C)(C)C)C/C(=C\c3ccc(C)cc3)C2=O)cc1 | – | > 100 µM | 1.22 | > 54.3 µM | 0.445 µM | > 100 µM | 0.0346 µM | > 100 µM | 0.0608 | > 100 | 0.268 | 0.927 µM | 0.281 µM | > 100 µM | 0.0743 µM | > 100 | – | > 100 µM | 11.6 µM | > 100 µM
COc1cc(C2c3cc4c(cc3[C@@H](Nc3ccc(C#N)cc3)C3COC(=O)[C@H]23)OCO4)cc(OC)c1O (stereo not given in full) | 0.217 µM and 1.9 µM | 9.66 µM and 2.69 µM and 17.2 µM | 3.34 | 25.6 µM and > 100 µM | 0.112 µM | 1.92 µM and 1.19 µM | 0.468 µM | 50 µM and > 100 µM | – | – | 1.02 | 5.11 µM and 2.11 µM | 6.59 µM and 2.68 µM | 11.6 µM and 41.3 µM and 21.2 µM | – | 9.52 | 0.194 µM and 0.234 µM | 2.82 µM and 0.59 µM and 2.57 µM | 2.89 µM | 28.2 µM and > 100 µM
COc1ccc2nc3cc([N+](=O)[O-])ccc3c(NCCCCCN(C)C)c2c1 | 0.233 µM | 1.03 µM | 0.249 | 1.93 µM | 0.15 µM | 1.07 µM | 0.159 µM | 14.1 µM | 0.216 | 0.522 | – | – | 2.13 µM | 13.5 µM | 0.279 µM | 1.1 | 0.0536 µM | 0.301 µM | 0.283 µM | 1.18 µM
O=C(Cn1ccc(=O)[nH]c1=O)Nc1ccc(C(=O)O)c(O)c1 | – | > 100 µM | – | > 100 µM | – | > 100 µM | – | > 100 µM | – | > 100 | – | – | – | > 100 µM | – | > 100 | – | > 100 µM | – | > 100 µM
